Assay [1] concerns the target Methionine aminopeptidase 2 (Homo sapiens, UniProt P50579). The assay is described as follows: MetAP Inhibition Assay. The conditions noted are these: pH 7.5; 22 °C. As to the method:
(§1) The MetAP reaction with Co2+ as a cofactor is coupled to a prolyl aminopeptidase (ProAP) using Met-Pro-p-nitroanilide as substrate. MetAP-catalyzed cleavage of the N-terminal methionine produces prolyl-p-nitroanilide, which is rapidly hydrolyzed by ProAP to release a chromogenic product. […] The initial rate was calculated from the early part of the reaction progress curve (<5 min). Activity assays were performed in triplicate using eight to 16 concentrations of substrate or inhibitor.

Assay [2] concerns the target Methionine aminopeptidase 1 (Homo sapiens, UniProt P53582). The assay is described as follows: MetAP Inhibition Assay. The conditions noted are these: pH 7.5; 22 °C. On the procedure:
as §1

This note sets out measurements from BindingDB's records for doi:10.1073/pnas.0608389103 (Johns Hopkins University, 2006).

Each structure is given as a SMILES string.

Chain of Methionine aminopeptidase 2 (P50579 whole entry): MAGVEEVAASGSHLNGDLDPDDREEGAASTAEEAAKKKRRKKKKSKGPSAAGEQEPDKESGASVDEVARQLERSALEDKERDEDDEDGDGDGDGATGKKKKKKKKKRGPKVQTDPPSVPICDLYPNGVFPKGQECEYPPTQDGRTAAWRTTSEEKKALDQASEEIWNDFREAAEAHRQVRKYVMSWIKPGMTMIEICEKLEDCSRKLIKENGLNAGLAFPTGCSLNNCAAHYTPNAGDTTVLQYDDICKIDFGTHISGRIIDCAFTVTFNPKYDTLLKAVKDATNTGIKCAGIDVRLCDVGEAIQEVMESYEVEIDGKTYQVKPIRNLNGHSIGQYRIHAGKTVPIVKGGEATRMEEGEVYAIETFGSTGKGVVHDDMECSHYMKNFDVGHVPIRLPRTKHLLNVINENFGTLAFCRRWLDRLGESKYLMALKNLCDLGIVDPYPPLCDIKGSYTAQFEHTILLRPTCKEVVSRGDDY

For orientation: IC50 means the midpoint of a concentration-inhibition curve. Low values mean higher potency, high ones lower potency. On to `CC(C)(C)C(=O)Nc1cccnc1C(=O)Nc1nccs1` [3-(2,2-dimethylpropanamido)-N-(1,3-thiazol-2-yl)pyridine-2-carboxamide], for which, in assay [1], the 50% inhibitory concentration (IC50) was greater than 500 µM.
Take `O=C(CCc1ccccc1)Nc1cccnc1C(=O)Nc1nccs1` [3-(3-phenylpropanamido)-N-(1,3-thiazol-2-yl)pyridine-2-carboxamide]: the results for the IC50 in assay [2] and in assay [1] were 3.5 µM and greater than 500 µM, respectively.
Taken in the same sequence, the figures for `CC(C)C=Nc1cccnc1C(=O)Nc1nccs1` [3-[(E)-(2-methylpropylidene)amino]-N-(1,3-thiazol-2-yl)pyridine-2-carboxamide] were 6.4 µM and greater than 1000 µM.
For the molecule `CCCCCCCC(=O)Nc1cccnc1C(=O)Nc1nccs1` [3-octanamido-N-(1,3-thiazol-2-yl)pyridine-2-carboxamide], the IC50 in assay [2] and in assay [1] was greater than 500 µM throughout.
In turn, `CC(C)(C)OC(=O)Nc1cccnc1C(=O)Nc1nccs1` [tert-butyl N-[2-(1,3-thiazol-2-ylcarbamoyl)pyridin-3-yl]carbamate] had an IC50 in assay [1] greater than 300 µM.
